{
  "source": "patent EP0129947A2",
  "about": "“Contraceptive compositions based on esters of levo-norgestrel” (priority 1983, dated 1985)",
  "key": {"female rats": {"system": "female rats", "experiment": "estrus suppression assay (duration of suppression of vaginal cornification after one subcutaneous injection)", "type": "in vivo, rats of the Sprague-Dawley strain", "details": "for durations of suppression: aqueous microcrystalline suspension, subcutaneous; for duration of action in words: cyclic esters of the series of Table 1 and Fig. 1; for suppression of estrus compared with DMPA at 16 mg/rat: ester at 8 mg/rat, aqueous microcrystalline suspension (Figure 1); for effect of formulation on results: aqueous microcrystalline suspension of particle size 3 to 10µ (50% cumulative oversize, Coulter)", "description": "These were subjected to a biological screening programme designed to uncover new and effective sustained- release injectable contraceptives, the compounds being tested as injectable oily solutions or aqueous suspensions. The initial test was to determine the duration of suppression of estrus in female rats, with DMPA and norethisterone enanthate being used as comparison-standards. The most promising compounds were then tested in primates.\nThe bioassay used to determine the duration of action of the contraceptive compositions involved measuring the suppression of estrus in female rats. The compositions were used at four dosage levels, i.e. 2, 4, 8 and 16 mg/rat.\nThe long-acting properties of each formulation were determined in estrus suppression assay employing virgin, mature (180-200 g) cycling rats of the Sprague-Dawley strain purchased from Charles River Laboratories, USA. Upon receipt the animals were smeared daily for cyclicity and only those animals showing two consecutive normal cycles were used. Each animal was injected subcutaneously with 0.8 ml of the test preparation on the same day regardless of the stage of the cycle. Each compound was initially tested on ten rats. A series of initial tests with injections of 16 mg/animal were followed by studies at dose levels of 8, 4 and 2 mg/animal where necessary. An aqueous microcrystalline suspension of medroxyprogesterone acetate was used as standard. Daily smears were taken starting on the day after injection and continued until such time that cornification of vaginal epithelium was observed and cycling was re-established. Duration of cornification suppression is expressed as the total number of days minus two. The appearance of cornification was not always followed by the return of normal estrus cycles."}, "[1]": {"experiment": "pharmacokinetics in the monkey (circulating levo norgestrel after injection)", "details": "monkey Macaca mulata"}, "[2]": {"details": "8 mg/rat, majority of experiments terminated at 91 days post injection"}},
  "data": [
    {"compound": "CC(=O)O[C@]1(C(C)=O)CC[C@H]2[C@@H]3C[C@H](C)C4=CC(=O)CC[C@]4(C)[C@H]3CC[C@@]21C", "note": "[DMPA, medroxyprogesterone acetate, reference compound]", "values": [
      {"measurement": "durations of suppression", "setting": "female rats; 2 mg/rat", "value": 20.9, "unit": "days"},
      {"measurement": "durations of suppression", "setting": "female rats; 4 mg/rat", "value": 28.2, "unit": "days"},
      {"measurement": "durations of suppression", "setting": "female rats; [2]", "value": 55.5, "unit": "days"},
      {"measurement": "durations of suppression", "setting": "female rats; 16 mg/rat", "value": 60.0, "unit": "days"},
      {"measurement": "average suppression duration", "setting": "female rats; microcrystalline suspension, rat, dose not given", "value": 63.7, "unit": "days"}
    ]},
    {"compound": "C#C[C@]1(OC(=O)C2CCCC2)CC[C@H]2[C@@H]3CCC4=CC(=O)CC[C@@H]4[C@H]3CC[C@@]21CC", "note": "[cyclopentylcarboxylate, Levo-norgestrel 17β-cyclopentyl carboxylate, reference compound]", "values": [
      {"measurement": "effectiveness in words", "setting": "female rats; 16 mg dose", "value": "relatively ineffective"},
      {"measurement": "duration of action in words", "setting": "female rats", "value": "short acting"}
    ]},
    {"compound": "C#C[C@]1(OC(=O)CCC)CC[C@H]2[C@@H]3CCC4=CC(=O)CC[C@@H]4[C@H]3CC[C@@]21CC", "note": "[levo-norgestrel butanoate]", "values": [
      {"measurement": "durations of suppression", "setting": "female rats; 2 mg/rat", "value": 34.4, "unit": "days"},
      {"measurement": "durations of suppression", "setting": "female rats; 4 mg/rat", "value": 65.1, "unit": "days"},
      {"measurement": "durations of suppression", "setting": "female rats; [2]", "value": "< 91", "unit": "days"},
      {"measurement": "suppression of estrus compared with DMPA at 16 mg/rat", "setting": "female rats", "value": "better suppression than DMPA at a dosage of 16 mg/rat"}
    ]},
    {"compound": "C#C[C@]1(OC(=O)C2CCC2)CC[C@H]2[C@@H]3CCC4=CC(=O)CC[C@@H]4[C@H]3CC[C@@]21CC", "note": "[levo-norgestrel cyclobutylcarboxylate]", "values": [
      {"measurement": "durations of suppression", "setting": "female rats; 2 mg/rat", "value": 31.9, "unit": "days"},
      {"measurement": "durations of suppression", "setting": "female rats; 4 mg/rat", "value": 55.7, "unit": "days"},
      {"measurement": "durations of suppression", "setting": "female rats; [2]", "value": 89.2, "unit": "days"},
      {"measurement": "durations of suppression", "setting": "female rats; 16 mg/rat", "value": "> 91", "unit": "days"},
      {"measurement": "effect of formulation on return to estrus", "setting": "female rats; Figure II: aqueous microcrystalline suspension 3 to 10µ versus solution in sesame oil or in ethyl oleate, groups of ten rats", "value": "longer term effect of the ester when micro-dispersed in aqueous medium"},
      {"measurement": "duration of action in words", "setting": "female rats", "value": "long-acting"},
      {"measurement": "suppression of estrus compared with DMPA at 16 mg/rat", "setting": "female rats; listed as cyclobutyl carboxylate", "value": "better suppression than DMPA at a dosage of 16 mg/rat"},
      {"measurement": "suppression of estrus compared with DMPA at 16 mg/rat", "setting": "female rats; listed as cyclobutylcarboxylate", "value": "the same inhibition as DMPA at 16 mg"},
      {"measurement": "activity relative to the aqueous suspension", "setting": "female rats; microcrystalline suspension in ethyl oleate (Table 11)", "value": "approximately 40%"},
      {"measurement": "activity by formulation", "setting": "female rats; solution in a 50:50 mixture of ethyl oleate and benzyl benzoate (BB), compared with the suspensions", "value": "Further reduction in activity"},
      {"measurement": "time during which measurable levels of levo norgestrel are still present in the circulation after injection", "setting": "[1]", "value": "> 100", "unit": "days"}
    ]},
    {"compound": "C#C[C@]1(OC(=O)C2CCCCC2)CC[C@H]2[C@@H]3CCC4=CC(=NO)CC[C@@H]4[C@H]3CC[C@@]21CC", "note": "[levo-norgestrel cyclohexylcarboxylate 3-oxime]", "values": [
      {"measurement": "effect of formulation on results", "setting": "female rats", "value": "better results"}
    ]},
    {"compound": "C#C[C@]1(OC(=O)C2CCCC2)CC[C@H]2[C@@H]3CCC4=CC(=NO)CC[C@@H]4[C@H]3CC[C@@]21CC", "note": "[levo-norgestrel cyclopentylcarboxylate 3-oxime]", "values": [
      {"measurement": "effect of formulation on results", "setting": "female rats", "value": "better results"}
    ]},
    {"compound": "C#C[C@]1(OC(=O)C2CC2)CC[C@H]2[C@@H]3CCC4=CC(=O)CC[C@@H]4[C@H]3CC[C@@]21CC", "note": "[levo-norgestrel cyclopropylcarboxylate]", "values": [
      {"measurement": "durations of suppression", "setting": "female rats; 4 mg/rat", "value": 55.6, "unit": "days"},
      {"measurement": "durations of suppression", "setting": "female rats; [2]", "value": 74.0, "unit": "days"},
      {"measurement": "duration of action in words", "setting": "female rats", "value": "long-acting"},
      {"measurement": "suppression of estrus compared with DMPA at 16 mg/rat", "setting": "female rats", "value": "better suppression than DMPA at a dosage of 16 mg/rat"}
    ]},
    {"compound": "norethisterone enanthate [reference compound]", "values": [
      {"measurement": "average duration", "setting": "female rats; oily solution, rat, dose not given", "value": 23.1, "unit": "days"}
    ]}
  ]
}
